Experimental findings from US11572399B2, “Long-acting GIP peptide analogues” (University of Copenhagen, priority 2017, dated 2023) are described below.

Structures are written as SMILES. Peptide text beside a SMILES is read from it. * marks the point of attachment. C16 diacid = O=C(O)CCCCCCCCCCCCCCC(=O)*

In the test the target is T1, human GIP receptor (Homo sapiens, UniProt P48546).
T1 construct: host or cells: COS-7, transient transfection (calcium phosphate), cDNA in pCMV-Script
T1 sequence (P48546 22-466): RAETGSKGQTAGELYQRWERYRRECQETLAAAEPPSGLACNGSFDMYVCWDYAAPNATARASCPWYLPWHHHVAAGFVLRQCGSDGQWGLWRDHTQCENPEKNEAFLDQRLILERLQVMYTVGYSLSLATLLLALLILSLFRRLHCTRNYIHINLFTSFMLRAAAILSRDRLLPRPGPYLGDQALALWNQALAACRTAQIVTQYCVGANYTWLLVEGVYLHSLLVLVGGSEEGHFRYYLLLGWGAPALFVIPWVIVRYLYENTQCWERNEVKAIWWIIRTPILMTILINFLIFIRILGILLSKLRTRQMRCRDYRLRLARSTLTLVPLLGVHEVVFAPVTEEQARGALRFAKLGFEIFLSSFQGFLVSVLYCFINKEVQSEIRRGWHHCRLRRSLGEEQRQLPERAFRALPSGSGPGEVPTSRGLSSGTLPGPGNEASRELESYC
Kind of test: cAMP accumulation assay, agonism (ligand alone). Format: cell-based. To be noted: COS-7 cells, Table 1; for Emax: COS-7, intrinsic cAMP activity; for EC50: read-out: cAMP agonism nM (EC50). How it is done: COS-7 cells were cultured at 10% CO2 and 37° C. in Dulbecco's modified Eagle's medium 1885 supplemented with 10% fetal bovine serum, 2 mM glutamine, 180 units/ml penicillin, and 45 µg/ml streptomycin. Transient transfection of the COS-7 cells for cAMP accumulation and competition binding was performed using the calcium phosphate precipitation method with the addition of chloroquine^46-47.
Transient transfected COS-7 cells expressing the human GIP receptor were seeded in white 96-well plates with a density of 3.5*10^4/well. The day after, the cells were washed twice with Hepes buffered saline (HBS) buffer and incubated with HBS and 1 mM 3-isobutyl-1-methylxanthine (IBMX) for 30 min at 37° C. To test for agonistic properties, ligands were added and incubated for 30 min at 37° C. In order to test for antagonistic properties, the cells were preincubated with the antagonists for 10 min prior to the addition of the agonist and subsequent incubated for 20 additional min. The HitHunter™ cAMP XS assay (DiscoveRx) was carried out according to the manufacturer's instructions.
IC50, EC50, and Ki values were determined by nonlinear regression. These were carried out with the GraphPad Prism 6.0 software (GraphPad, San Diego, Calif., USA) and Microsoft Excel™. Ki values were based on the formula for one class of binding sites in homologous competition binding studies and the Cheng Prussoffs formula, respectively (DeBlasi et al., 1989). To determine the HSA binding potential, the fold change in affinity (as determined by IC50) was calculated as IC50 (plus HSA)/IC50 (minus HSA).
(Changes in cAMP serve as a functional read-out for many G protein-coupled receptors.)

Regarding `CC[C@H](C)[C@H](NC(=O)[C@H](CCCCN)NC(=O)[C@H](CC(=O)O)NC(=O)[C@H](CCSC)NC(=O)[C@H](C)NC(=O)[C@H](CCCCNC(=O)CCCCCCCCCCCCCCC(=O)O)NC(=O)[C@H](CO)NC(=O)[C@H](Cc1ccc(O)cc1)NC(=O)[C@H](CC(=O)O)NC(=O)[C@H](CO)NC(=O)[C@@H](NC(=O)[C@H](Cc1ccccc1)NC(=O)[C@@H](NC(=O)CNC(=O)[C@@H](N)CCC(=O)O)[C@@H](C)O)[C@@H](C)CC)C(=O)N[C@@H](Cc1c[nH]cn1)C(=O)N[C@@H](CCC(N)=O)C(=O)N[C@@H](CCC(N)=O)C(=O)N[C@@H](CC(=O)O)C(=O)N[C@@H](Cc1ccccc1)C(=O)N[C@H](C(=O)N[C@@H](CC(N)=O)C(=O)N[C@@H](Cc1c[nH]c2ccccc12)C(=O)N[C@@H](CC(C)C)C(=O)N[C@@H](CC(C)C)C(=O)N[C@@H](C)C(=O)N[C@@H](CCC(N)=O)C(=O)N[C@@H](CCCCN)C(N)=O)C(C)C` [AT303, [hGIP(3-30)NH2[I12K]-C16diacid/12]] (H-EGTFISDYSK(C16 diacid)AMDKIHQQDFVNWLLAQK-NH2; N-terminus assumed), the maximum response (Emax) (usually the size of the effect at its maximum, as opposed to the concentration needed) was 24.2% and the EC50 – broadly, the midpoint of the concentration-response curve – is 28 nM.
In the case of `CC[C@H](C)[C@H](NC(=O)[C@H](CO)NC(=O)[C@H](Cc1ccc(O)cc1)NC(=O)[C@H](CC(=O)O)NC(=O)[C@H](CO)NC(=O)[C@@H](NC(=O)[C@H](Cc1ccccc1)NC(=O)[C@@H](NC(=O)CNC(=O)[C@@H](N)CCC(=O)O)[C@@H](C)O)[C@@H](C)CC)C(=O)N[C@@H](C)C(=O)N[C@@H](CCSC)C(=O)N[C@@H](CC(=O)O)C(=O)N[C@@H](CCCCN)C(=O)N[C@H](C(=O)N[C@@H](Cc1c[nH]cn1)C(=O)N[C@@H](CCCCNC(=O)CCCCCCCCCCCCCCC(=O)O)C(=O)N[C@@H](CCC(N)=O)C(=O)N[C@@H](CC(=O)O)C(=O)N[C@@H](Cc1ccccc1)C(=O)N[C@H](C(=O)N[C@@H](CC(N)=O)C(=O)N[C@@H](Cc1c[nH]c2ccccc12)C(=O)N[C@@H](CC(C)C)C(=O)N[C@@H](CC(C)C)C(=O)N[C@@H](C)C(=O)N[C@@H](CCC(N)=O)C(=O)N[C@@H](CCCCN)C(N)=O)C(C)C)[C@@H](C)CC` [AT308, [hGIP(3-30)NH2[Q19K]-C16diacid/19]] (H-EGTFISDYSIAMDKIHK(C16 diacid)QDFVNWLLAQK-NH2; N-terminus assumed), the Emax came to 7.9%.
Consider `CC[C@H](C)[C@H](NC(=O)[C@H](CO)NC(=O)[C@H](Cc1ccc(O)cc1)NC(=O)[C@H](CC(=O)O)NC(=O)[C@H](CO)NC(=O)[C@@H](NC(=O)[C@H](Cc1ccccc1)NC(=O)[C@@H](NC(=O)CNC(=O)[C@@H](N)CCC(=O)O)[C@@H](C)O)[C@@H](C)CC)C(=O)N[C@@H](C)C(=O)N[C@@H](CCSC)C(=O)N[C@@H](CC(=O)O)C(=O)N[C@@H](CCCCN)C(=O)N[C@H](C(=O)N[C@@H](Cc1c[nH]cn1)C(=O)N[C@@H](CCC(N)=O)C(=O)N[C@@H](CCCCNC(=O)CCCCCCCCCCCCCCC(=O)O)C(=O)N[C@@H](CC(=O)O)C(=O)N[C@@H](Cc1ccccc1)C(=O)N[C@H](C(=O)N[C@@H](CC(N)=O)C(=O)N[C@@H](Cc1c[nH]c2ccccc12)C(=O)N[C@@H](CC(C)C)C(=O)N[C@@H](CC(C)C)C(=O)N[C@@H](C)C(=O)N[C@@H](CCC(N)=O)C(=O)N[C@@H](CCCCN)C(N)=O)C(C)C)[C@@H](C)CC` [AT309, [hGIP(3-30)NH2[Q20K]-C16diacid/20]] (H-EGTFISDYSIAMDKIHQK(C16 diacid)DFVNWLLAQK-NH2; N-terminus assumed), for which the “cAMP agonism Emax” value (intrinsic cAMP activity) is reported as “no ag”.
`CC[C@H](C)[C@H](NC(=O)[C@H](CO)NC(=O)[C@H](Cc1ccc(O)cc1)NC(=O)[C@H](CC(=O)O)NC(=O)[C@H](CO)NC(=O)[C@@H](NC(=O)[C@H](Cc1ccccc1)NC(=O)[C@@H](NC(=O)CNC(=O)[C@@H](N)CCC(=O)O)[C@@H](C)O)[C@@H](C)CC)C(=O)N[C@@H](C)C(=O)N[C@@H](CCSC)C(=O)N[C@@H](CC(=O)O)C(=O)N[C@@H](CCCCN)C(=O)N[C@H](C(=O)N[C@@H](Cc1c[nH]cn1)C(=O)N[C@@H](CCC(N)=O)C(=O)N[C@@H](CCC(N)=O)C(=O)N[C@@H](CC(=O)O)C(=O)N[C@@H](CCCCNC(=O)CCCCCCCCCCCCCCC(=O)O)C(=O)N[C@H](C(=O)N[C@@H](CC(N)=O)C(=O)N[C@@H](Cc1c[nH]c2ccccc12)C(=O)N[C@@H](CC(C)C)C(=O)N[C@@H](CC(C)C)C(=O)N[C@@H](C)C(=O)N[C@@H](CCC(N)=O)C(=O)N[C@@H](CCCCN)C(N)=O)C(C)C)[C@@H](C)CC` [AT311, [hGIP(3-30)NH2[F22K]-C16diacid/22]] (H-EGTFISDYSIAMDKIHQQDK(C16 diacid)VNWLLAQK-NH2; N-terminus assumed) gave an Emax of 17.5%.
As to `CC[C@H](C)[C@H](NC(=O)[C@H](CO)NC(=O)[C@H](Cc1ccc(O)cc1)NC(=O)[C@H](CC(=O)O)NC(=O)[C@H](CO)NC(=O)[C@@H](NC(=O)[C@H](Cc1ccccc1)NC(=O)[C@@H](NC(=O)CNC(=O)[C@@H](N)CCC(=O)O)[C@@H](C)O)[C@@H](C)CC)C(=O)N[C@@H](C)C(=O)N[C@@H](CCSC)C(=O)N[C@@H](CC(=O)O)C(=O)N[C@@H](CCCCN)C(=O)N[C@H](C(=O)N[C@@H](Cc1c[nH]cn1)C(=O)N[C@@H](CCC(N)=O)C(=O)N[C@@H](CCC(N)=O)C(=O)N[C@@H](CC(=O)O)C(=O)N[C@@H](Cc1ccccc1)C(=O)N[C@@H](CCCCNC(=O)CCCCCCCCCCCCCCC(=O)O)C(=O)N[C@@H](CC(N)=O)C(=O)N[C@@H](Cc1c[nH]c2ccccc12)C(=O)N[C@@H](CC(C)C)C(=O)N[C@@H](CC(C)C)C(=O)N[C@@H](C)C(=O)N[C@@H](CCC(N)=O)C(=O)N[C@@H](CCCCN)C(N)=O)[C@@H](C)CC` [AT312, [hGIP(3-30)NH2[V23K]-C16diacid/23]] (H-EGTFISDYSIAMDKIHQQDFK(C16 diacid)NWLLAQK-NH2; N-terminus assumed), the Emax is 54%.
As to `CC[C@H](C)[C@H](NC(=O)[C@H](CO)NC(=O)[C@H](Cc1ccc(O)cc1)NC(=O)[C@H](CC(=O)O)NC(=O)[C@H](CO)NC(=O)[C@@H](NC(=O)[C@H](Cc1ccccc1)NC(=O)[C@@H](NC(=O)CNC(=O)[C@@H](N)CCC(=O)O)[C@@H](C)O)[C@@H](C)CC)C(=O)N[C@@H](C)C(=O)N[C@@H](CCSC)C(=O)N[C@@H](CC(=O)O)C(=O)N[C@@H](CCCCN)C(=O)N[C@H](C(=O)N[C@@H](Cc1c[nH]cn1)C(=O)N[C@@H](CCC(N)=O)C(=O)N[C@@H](CCC(N)=O)C(=O)N[C@@H](CC(=O)O)C(=O)N[C@@H](Cc1ccccc1)C(=O)N[C@H](C(=O)N[C@@H](CCCCNC(=O)CCCCCCCCCCCCCCC(=O)O)C(=O)N[C@@H](Cc1c[nH]c2ccccc12)C(=O)N[C@@H](CC(C)C)C(=O)N[C@@H](CC(C)C)C(=O)N[C@@H](C)C(=O)N[C@@H](CCC(N)=O)C(=O)N[C@@H](CCCCN)C(N)=O)C(C)C)[C@@H](C)CC` [AT313, [hGIP(3-30)NH2[N24K]-C16diacid/24]] (H-EGTFISDYSIAMDKIHQQDFVK(C16 diacid)WLLAQK-NH2; N-terminus assumed), the Emax is 7.2%.
With `CC[C@H](C)[C@H](NC(=O)[C@H](CO)NC(=O)[C@H](Cc1ccc(O)cc1)NC(=O)[C@H](CC(=O)O)NC(=O)[C@H](CO)NC(=O)[C@@H](NC(=O)[C@H](Cc1ccccc1)NC(=O)[C@@H](NC(=O)CNC(=O)[C@@H](N)CCC(=O)O)[C@@H](C)O)[C@@H](C)CC)C(=O)N[C@@H](C)C(=O)N[C@@H](CCSC)C(=O)N[C@@H](CC(=O)O)C(=O)N[C@@H](CCCCN)C(=O)N[C@H](C(=O)N[C@@H](Cc1c[nH]cn1)C(=O)N[C@@H](CCC(N)=O)C(=O)N[C@@H](CCC(N)=O)C(=O)N[C@@H](CC(=O)O)C(=O)N[C@@H](Cc1ccccc1)C(=O)N[C@H](C(=O)N[C@@H](CC(N)=O)C(=O)N[C@@H](CCCCNC(=O)CCCCCCCCCCCCCCC(=O)O)C(=O)N[C@@H](CC(C)C)C(=O)N[C@@H](CC(C)C)C(=O)N[C@@H](C)C(=O)N[C@@H](CCC(N)=O)C(=O)N[C@@H](CCCCN)C(N)=O)C(C)C)[C@@H](C)CC` [AT314, [hGIP(3-30)NH2[W25K]-C16diacid/25]] (H-EGTFISDYSIAMDKIHQQDFVNK(C16 diacid)LLAQK-NH2; N-terminus assumed), the Emax was 28.4% and the EC50 was 62 nM.
